{"source": "ChEMBL document CHEMBL1649508", "about": "“Emergence of quinolone-resistant Bordetella pertussis in Japan” (2009)"}
{"system": "Bordetella pertussis", "experiment": "Antibacterial activity against quinolone-susceptible Bordetella pertussis BP128 by Etest method", "type": "functional", "units": {"MIC": "µg/mL"}}
{"smiles": "O=C(O)c1cn(C2CC2)c2cc(N3CCNCC3)c(F)cc2c1=O", "note": "[CIPROFLOXACIN]", "MIC": 0.016}
{"smiles": "C[C@H]1COc2c(N3CCN(C)CC3)c(F)cc3c(=O)c(C(=O)O)cn1c23.C[C@H]1COc2c(N3CCN(C)CC3)c(F)cc3c(=O)c(C(=O)O)cn1c23.O", "note": "[LEVOFLOXACIN]", "MIC": 0.016}
{"smiles": "COc1c(N2CCNC(C)C2)c(F)cc2c(=O)c(C(=O)O)cn(C3CC3)c12", "note": "(stereo not given) [GATIFLOXACIN]", "MIC": 0.008}
{"system": "Bordetella pertussis", "experiment": "Antibacterial activity against quinolone-susceptible Bordetella pertussis BP109 by Etest method", "type": "functional", "units": {"MIC": "µg/mL"}}
{"smiles": "O=C(O)c1cn(C2CC2)c2cc(N3CCNCC3)c(F)cc2c1=O", "note": "[CIPROFLOXACIN]", "MIC": 0.008}
{"smiles": "C[C@H]1COc2c(N3CCN(C)CC3)c(F)cc3c(=O)c(C(=O)O)cn1c23.C[C@H]1COc2c(N3CCN(C)CC3)c(F)cc3c(=O)c(C(=O)O)cn1c23.O", "note": "[LEVOFLOXACIN]", "MIC": 0.004}
{"smiles": "COc1c(N2CCNC(C)C2)c(F)cc2c(=O)c(C(=O)O)cn(C3CC3)c12", "note": "(stereo not given) [GATIFLOXACIN]", "MIC": 0.004}
{"system": "Bordetella pertussis", "experiment": "Antibacterial activity against quinolone-susceptible Bordetella pertussis BP115 by Etest method", "type": "functional", "units": {"MIC": "µg/mL"}}
{"smiles": "O=C(O)c1cn(C2CC2)c2cc(N3CCNCC3)c(F)cc2c1=O", "note": "[CIPROFLOXACIN]", "MIC": 0.016}
{"smiles": "C[C@H]1COc2c(N3CCN(C)CC3)c(F)cc3c(=O)c(C(=O)O)cn1c23.C[C@H]1COc2c(N3CCN(C)CC3)c(F)cc3c(=O)c(C(=O)O)cn1c23.O", "note": "[LEVOFLOXACIN]", "MIC": 0.008}
{"smiles": "COc1c(N2CCNC(C)C2)c(F)cc2c(=O)c(C(=O)O)cn(C3CC3)c12", "note": "(stereo not given) [GATIFLOXACIN]", "MIC": 0.008}
{"system": "Bordetella pertussis", "experiment": "Antibacterial activity against quinolone-susceptible Bordetella pertussis BP111 by Etest method", "type": "functional", "units": {"MIC": "µg/mL"}}
{"smiles": "O=C(O)c1cn(C2CC2)c2cc(N3CCNCC3)c(F)cc2c1=O", "note": "[CIPROFLOXACIN]", "MIC": 0.016}
{"smiles": "C[C@H]1COc2c(N3CCN(C)CC3)c(F)cc3c(=O)c(C(=O)O)cn1c23.C[C@H]1COc2c(N3CCN(C)CC3)c(F)cc3c(=O)c(C(=O)O)cn1c23.O", "note": "[LEVOFLOXACIN]", "MIC": 0.008}
{"smiles": "COc1c(N2CCNC(C)C2)c(F)cc2c(=O)c(C(=O)O)cn(C3CC3)c12", "note": "(stereo not given) [GATIFLOXACIN]", "MIC": 0.008}
{"system": "Bordetella pertussis", "experiment": "Antibacterial activity against […] Bordetella pertussis BP118 by Etest method", "type": "functional", "units": {"MIC": "µg/mL"}}
{"smiles": "O=C(O)c1cn(C2CC2)c2cc(N3CCNCC3)c(F)cc2c1=O", "note": "[CIPROFLOXACIN]", "MIC": 0.125}
{"smiles": "C[C@H]1COc2c(N3CCN(C)CC3)c(F)cc3c(=O)c(C(=O)O)cn1c23.C[C@H]1COc2c(N3CCN(C)CC3)c(F)cc3c(=O)c(C(=O)O)cn1c23.O", "note": "[LEVOFLOXACIN]", "MIC": 0.064}
{"smiles": "COc1c(N2CCNC(C)C2)c(F)cc2c(=O)c(C(=O)O)cn(C3CC3)c12", "note": "(stereo not given) [GATIFLOXACIN]", "MIC": 0.032}
{"system": "Bordetella pertussis", "experiment": "Antibacterial activity against quinolone-susceptible Bordetella pertussis BP106 by Etest method", "type": "functional", "units": {"MIC": "µg/mL"}}
{"smiles": "O=C(O)c1cn(C2CC2)c2cc(N3CCNCC3)c(F)cc2c1=O", "note": "[CIPROFLOXACIN]", "MIC": 0.008}
{"smiles": "C[C@H]1COc2c(N3CCN(C)CC3)c(F)cc3c(=O)c(C(=O)O)cn1c23.C[C@H]1COc2c(N3CCN(C)CC3)c(F)cc3c(=O)c(C(=O)O)cn1c23.O", "note": "[LEVOFLOXACIN]", "MIC": 0.008}
{"smiles": "COc1c(N2CCNC(C)C2)c(F)cc2c(=O)c(C(=O)O)cn(C3CC3)c12", "note": "(stereo not given) [GATIFLOXACIN]", "MIC": 0.004}
{"system": "Bordetella pertussis", "experiment": "Antibacterial activity against quinolone-susceptible Bordetella pertussis BP101 by Etest method", "type": "functional", "units": {"MIC": "µg/mL"}}
{"smiles": "O=C(O)c1cn(C2CC2)c2cc(N3CCNCC3)c(F)cc2c1=O", "note": "[CIPROFLOXACIN]", "MIC": 0.016}
{"smiles": "C[C@H]1COc2c(N3CCN(C)CC3)c(F)cc3c(=O)c(C(=O)O)cn1c23.C[C@H]1COc2c(N3CCN(C)CC3)c(F)cc3c(=O)c(C(=O)O)cn1c23.O", "note": "[LEVOFLOXACIN]", "MIC": 0.016}
{"smiles": "COc1c(N2CCNC(C)C2)c(F)cc2c(=O)c(C(=O)O)cn(C3CC3)c12", "note": "(stereo not given) [GATIFLOXACIN]", "MIC": 0.008}
{"system": "Bordetella pertussis", "experiment": "Antibacterial activity against quinolone-susceptible Bordetella pertussis BP112 by Etest method", "type": "functional", "units": {"MIC": "µg/mL"}}
{"smiles": "O=C(O)c1cn(C2CC2)c2cc(N3CCNCC3)c(F)cc2c1=O", "note": "[CIPROFLOXACIN]", "MIC": 0.008}
{"smiles": "C[C@H]1COc2c(N3CCN(C)CC3)c(F)cc3c(=O)c(C(=O)O)cn1c23.C[C@H]1COc2c(N3CCN(C)CC3)c(F)cc3c(=O)c(C(=O)O)cn1c23.O", "note": "[LEVOFLOXACIN]", "MIC": 0.008}
{"smiles": "COc1c(N2CCNC(C)C2)c(F)cc2c(=O)c(C(=O)O)cn(C3CC3)c12", "note": "(stereo not given) [GATIFLOXACIN]", "MIC": 0.004}
{"system": "Bordetella pertussis", "experiment": "Antibacterial activity against […] Bordetella pertussis BP58 by Etest method", "type": "functional", "units": {"MIC": "µg/mL"}}
{"smiles": "O=C(O)c1cn(C2CC2)c2cc(N3CCNCC3)c(F)cc2c1=O", "note": "[CIPROFLOXACIN]", "MIC": 0.125}
{"smiles": "C[C@H]1COc2c(N3CCN(C)CC3)c(F)cc3c(=O)c(C(=O)O)cn1c23.C[C@H]1COc2c(N3CCN(C)CC3)c(F)cc3c(=O)c(C(=O)O)cn1c23.O", "note": "[LEVOFLOXACIN]", "MIC": 0.064}
{"smiles": "COc1c(N2CCNC(C)C2)c(F)cc2c(=O)c(C(=O)O)cn(C3CC3)c12", "note": "(stereo not given) [GATIFLOXACIN]", "MIC": 0.032}
{"system": "Bordetella pertussis", "experiment": "Antibacterial activity against […] Bordetella pertussis BP121 by Etest method", "type": "functional", "units": {"MIC": "µg/mL"}}
{"smiles": "O=C(O)c1cn(C2CC2)c2cc(N3CCNCC3)c(F)cc2c1=O", "note": "[CIPROFLOXACIN]", "MIC": 0.125}
{"smiles": "C[C@H]1COc2c(N3CCN(C)CC3)c(F)cc3c(=O)c(C(=O)O)cn1c23.C[C@H]1COc2c(N3CCN(C)CC3)c(F)cc3c(=O)c(C(=O)O)cn1c23.O", "note": "[LEVOFLOXACIN]", "MIC": 0.064}
{"smiles": "COc1c(N2CCNC(C)C2)c(F)cc2c(=O)c(C(=O)O)cn(C3CC3)c12", "note": "(stereo not given) [GATIFLOXACIN]", "MIC": 0.032}
{"system": "Bordetella pertussis", "experiment": "Antibacterial activity against […] Bordetella pertussis BP117 by Etest method", "type": "functional", "units": {"MIC": "µg/mL"}}
{"smiles": "O=C(O)c1cn(C2CC2)c2cc(N3CCNCC3)c(F)cc2c1=O", "note": "[CIPROFLOXACIN]", "MIC": 0.125}
{"smiles": "C[C@H]1COc2c(N3CCN(C)CC3)c(F)cc3c(=O)c(C(=O)O)cn1c23.C[C@H]1COc2c(N3CCN(C)CC3)c(F)cc3c(=O)c(C(=O)O)cn1c23.O", "note": "[LEVOFLOXACIN]", "MIC": 0.064}
{"smiles": "COc1c(N2CCNC(C)C2)c(F)cc2c(=O)c(C(=O)O)cn(C3CC3)c12", "note": "(stereo not given) [GATIFLOXACIN]", "MIC": 0.032}
{"system": "Bordetella pertussis", "experiment": "Antibacterial activity against quinolone-susceptible Bordetella pertussis BP113 by Etest method", "type": "functional", "units": {"MIC": "µg/mL"}}
{"smiles": "O=C(O)c1cn(C2CC2)c2cc(N3CCNCC3)c(F)cc2c1=O", "note": "[CIPROFLOXACIN]", "MIC": 0.008}
{"smiles": "C[C@H]1COc2c(N3CCN(C)CC3)c(F)cc3c(=O)c(C(=O)O)cn1c23.C[C@H]1COc2c(N3CCN(C)CC3)c(F)cc3c(=O)c(C(=O)O)cn1c23.O", "note": "[LEVOFLOXACIN]", "MIC": 0.008}
{"smiles": "COc1c(N2CCNC(C)C2)c(F)cc2c(=O)c(C(=O)O)cn(C3CC3)c12", "note": "(stereo not given) [GATIFLOXACIN]", "MIC": 0.004}
{"system": "Bordetella pertussis", "experiment": "Antibacterial activity against quinolone-susceptible Bordetella pertussis CCUG 30837 by Etest method", "type": "functional", "units": {"MIC": "µg/mL"}}
{"smiles": "O=C(O)c1cn(C2CC2)c2cc(N3CCNCC3)c(F)cc2c1=O", "note": "[CIPROFLOXACIN]", "MIC": 0.032}
{"smiles": "C[C@H]1COc2c(N3CCN(C)CC3)c(F)cc3c(=O)c(C(=O)O)cn1c23.C[C@H]1COc2c(N3CCN(C)CC3)c(F)cc3c(=O)c(C(=O)O)cn1c23.O", "note": "[LEVOFLOXACIN]", "MIC": 0.016}
{"smiles": "COc1c(N2CCNC(C)C2)c(F)cc2c(=O)c(C(=O)O)cn(C3CC3)c12", "note": "(stereo not given) [GATIFLOXACIN]", "MIC": 0.008}
{"system": "Bordetella pertussis", "experiment": "Antibacterial activity against […] Bordetella pertussis BP99 by Etest method", "type": "functional", "units": {"MIC": "µg/mL"}}
{"smiles": "O=C(O)c1cn(C2CC2)c2cc(N3CCNCC3)c(F)cc2c1=O", "note": "[CIPROFLOXACIN]", "MIC": 0.125}
{"smiles": "C[C@H]1COc2c(N3CCN(C)CC3)c(F)cc3c(=O)c(C(=O)O)cn1c23.C[C@H]1COc2c(N3CCN(C)CC3)c(F)cc3c(=O)c(C(=O)O)cn1c23.O", "note": "[LEVOFLOXACIN]", "MIC": 0.064}
{"smiles": "COc1c(N2CCNC(C)C2)c(F)cc2c(=O)c(C(=O)O)cn(C3CC3)c12", "note": "(stereo not given) [GATIFLOXACIN]", "MIC": 0.032}
{"system": "Bordetella pertussis", "experiment": "Antibacterial activity against […] Bordetella pertussis BP122 by Etest method", "type": "functional", "units": {"MIC": "µg/mL"}}
{"smiles": "O=C(O)c1cn(C2CC2)c2cc(N3CCNCC3)c(F)cc2c1=O", "note": "[CIPROFLOXACIN]", "MIC": 0.125}
{"smiles": "C[C@H]1COc2c(N3CCN(C)CC3)c(F)cc3c(=O)c(C(=O)O)cn1c23.C[C@H]1COc2c(N3CCN(C)CC3)c(F)cc3c(=O)c(C(=O)O)cn1c23.O", "note": "[LEVOFLOXACIN]", "MIC": 0.064}
{"smiles": "COc1c(N2CCNC(C)C2)c(F)cc2c(=O)c(C(=O)O)cn(C3CC3)c12", "note": "(stereo not given) [GATIFLOXACIN]", "MIC": 0.032}
